pEC50, pIC50: −log10 of the molar value. Active and inactive are the calls of the source.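 Rule for the calls: active = compounds giving half or more protection of infected cells from virus-caused growth loss, again on retest; inactive = the rest.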 Where a SMILES comes first, the peptide text is derived from it. [ ]: non-standard residue; d: D form. The star is where a group is joined. ξ: configuration not given here. ξD = NC(CC(=O)O)C(=O)O; Ac3c = NC1(C(=O)O)CC1; Boc = CC(C)(C)OC(=O)*; OSu = O=C1CCC(=O)N1O*; OBn = c1ccc(CO*)cc1 Where only a bound is given, the exact number is not on record here.

The values below come from PubChem BioAssay AID179 (DTP/NCI, 2004).

For the assay, the system named is CEM cells HIV-1 protection, formazan growth assay. The assay is described as follows: NCI AIDS Antiviral Assay. Conditions: for pIC50: measured here: growth of uninfected CEM cells. The gist of the method: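 Human CEM cells, uninfected and HIV-1-infected, exposed to five drug concentrations; growth measured by soluble formazan assay and scored as percent protection from infection, with protecting compounds retested.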

Broadly, the pEC50 is the EC50 on a negative log10 scale, so that one unit is a factor of ten. As usually defined, the pIC50 is −log10 of the IC50, conventionally taken in molar units. Low values mean a high IC50, high ones a low IC50. As for `S=C1C=C(c2ccccc2)Sc2ccccc2N1`, the pEC50 is less than 3.70 and the pIC50 was 4.22. In the case of `Cc1cc(C)nc(NS(=O)(=O)c2ccc(NC(=O)c3ccc(Cl)c4c(Nc5ccc(S(=O)(=O)Nc6nc(C)cc(C)n6)cc5)c5ccccc5nc34)cc2)n1`, the pEC50 is less than 4.34 and the negative logarithm of the IC50 (pIC50) was 4.61. `CCN(CCO)CC1COc2ccccc2O1` (stereo not drawn): the pEC50 is less than 3.70 and the pIC50 is less than 3.70.

For the compound `NCCCCC(NC(=O)C(N)Cc1ccc(O)cc1)C(=O)NC(Cc1ccc(O)cc1)C(=O)NC(CCCCN)C(=O)ON1C(=O)CCC1=O` (stereo not drawn) (H-YKYK-OSu; configuration not given here), the pEC50 is less than 3.70 and the negative logarithm of the IC50 (pIC50) was less than 3.70. Take `COC(=O)/C=C1\C(CO)OC(n2ccc(=O)[nH]c2=O)C1O` (stereo not drawn): the pEC50 was less than 3.70 and the pIC50 is less than 3.70. Consider `C[C@@H]1OCC(O)C([C@H]2OC(c3ccccc3)=N[C@H]2CO)O1` (stereo partly drawn), for which the pEC50 was less than 3.70 and the pIC50 is less than 3.70. Turning to `C=CCC1(c2ccc(OC)cc2)C=CC(=O)CC1` (stereo not drawn), the pEC50 was less than 3.55 and the pIC50 is 4.10. Take `O=c1oc2cc(O)ccc2c(O)c1C(c1ccc(/C=C/c2ccccc2)cc1)c1c(O)c2ccc(O)cc2oc1=O`: the pEC50 is less than 3.70 and the pIC50 is 4.13. Turning to `Fc1ccc(C2SCc3nc4ccccc4n32)c(F)c1` (stereo not drawn), the outcome was inactive. For `CS(=O)(=O)Nc1nc2ccccc2c(=O)o1`, the pEC50 is less than 3.70 and the pIC50 is less than 3.70. Turning to `COC(=O)C12CCC(C(=O)OC)(Cc3c(c4ccccc4n3S(=O)(=O)c3ccccc3)C1)C2=O` (stereo not drawn), the pEC50 is less than 3.70 and the pIC50 is 4.07. In the case of `COc1ccc(C(=O)Sc2c(-c3ccccc3)c(=O)n(-c3ccccc3)c(=S)n2-c2ccccc2)cc1`, the pEC50 was less than 3.70 and the pIC50 was 5.48.

As to `O=C(/C=C/c1ccco1)N1CCN(Cc2ccccc2)CC1`, the pEC50 is less than 3.55 and the negative-log IC50 (pIC50) was 3.58. `COc1cc(C2OCC3C(c4ccc(O)c(OC)c4)OCC23)ccc1O` (stereo not drawn): the outcome was inactive. With `O=C(Nc1ccc(Cl)cc1)c1cc2cc(N=Nc3ccccc3Cl)ccc2oc1=O`, the pEC50 is less than 4.78 and the pIC50 was less than 4.78. As for `C/C(CC(O)(C(F)(F)F)C(F)(F)F)=N\NC(N)=S`, the pEC50 was less than 3.70 and the pIC50 was less than 3.70. With `O/N=C1/C(=C/c2ccc(Cl)cc2)CCCC1C(NO)c1ccc(Cl)cc1` (stereo not drawn), the pEC50 is less than 4.87 and the negative logarithm of the IC50 (pIC50) was less than 4.87.

In the case of `CCC1CN2CCC3(C(=O)Nc4ccccc43)C2CC1/C(=C/OC)C(=O)OC` (stereo not drawn), the result was inactive. Take `C1CCN2CC3CONC3C2C1` (stereo not drawn): the pEC50 is less than 2.83 and the pIC50 was less than 2.83.

`CC1CCN(Cc2cccnc2)CC1`: the outcome was inactive.

Consider `CCOC(=O)C1=C(OC(OCC)C([Se]c2ccccc2)C(C)C)CCC1` (stereo not drawn), for which the pEC50 was less than 4.63 and the negative logarithm of the IC50 (pIC50) was less than 4.63. Consider `COc1ccc(C(C#N)NNC(=O)c2ccccc2O)cc1OC` (stereo not drawn), for which the pEC50 is less than 4.10 and the pIC50 was 5.39. In the same order, the values of `O=C1C(=O)c2ccccc2C(O)=C1C(C1=C(O)c2ccccc2C(=O)C1=O)c1ccc(C(C2=C(O)c3ccccc3C(=O)C2=O)C2=C(O)c3ccccc3C(=O)C2=O)cc1` are less than 3.70 and 5.02. Taken in the same sequence, the figures for `CCC(C)C(NC(=O)C(CCCN=C(N)N)NC(=O)C(CC(N)=O)NC(=O)C(Cc1ccc(O)cc1)NC(=O)C(N)CC(C)C)C(=O)NC(C(=O)NC(CC(C)C)C(=O)NC(CCCN=C(N)N)C(=O)NC(Cc1ccc(O)cc1)C(=O)O)C(C)CC` (stereo not drawn) (H-LYNRIILRY-OH; configuration not given here) were less than 4.39 and 4.63. Take `CC(C)N(C(=O)C12C3C4C5C3C1(C(=O)N(C(C)C)C(C)C)C5(C#N)C42)C(C)C` (stereo not drawn): the pEC50 is less than 4.03 and the negative logarithm of the IC50 (pIC50) is less than 4.03.

For `O=C(NC(=Nc1ccccc1)SCCSC(=Nc1ccccc1)NC(=O)c1ccccc1)c1ccccc1`, the pEC50 is less than 4.73 and the pIC50 was less than 4.73. On to `N#CC(N)c1ccc(OCCCCCCCCCCOc2ccc(C(N)C#N)cc2)cc1` (stereo not drawn), for which the pEC50 was less than 3.70 and the pIC50 was 3.94. Turning to `CCOC(=O)C(C(=O)c1ccccc1)C(=O)c1ccccc1`, the pEC50 was less than 4.34 and the negative logarithm of the IC50 (pIC50) is less than 4.34.

As for `O=C1c2c(ccc3c2CCCC3)CC12Cc1ccc3c(c1C2=O)CCCC3`, the pEC50 was less than 3.70 and the negative logarithm of the IC50 (pIC50) is less than 3.70. Turning to `CCCCCCCCCCCCCCC(F)C(=O)OCC1OC(CO)(OC2OC(CO)C(O)C(O)C2O)C(O)C1O` (stereo not drawn), the pEC50 was less than 3.70 and the negative-log IC50 (pIC50) was 4.02.

As for `COC(=O)c1nc(NN)[nH]c(=O)c1CCCCCc1c(C(=O)OC)[nH]c(NN)cc1=O`, the pEC50 is less than 5.20 and the pIC50 was less than 5.20. Turning to `CN(C)c1ccc(C=C2C(=O)OC(C)(C)OC2=O)cc1`, the result was inactive. Take `CCOC(=O)C(NC(C)=O)(Nc1ccc(F)cc1)C(F)(F)F` (stereo not drawn): the result was inactive. For the compound `CCCCCC=C(c1cc(Cl)c(OC)c(C(=O)N(C)C)c1)c1cc(Cl)c(OC)c(C(=O)N(C)C)c1`, the pEC50 is less than 4.44 and the pIC50 was 4.67. Turning to `COc1ccc2nc3ccccc3c(NCCCCCN(C)CCCl)c2c1`, the outcome was inactive.

As for `CC(=O)OCC12CC(OC(C)=O)C(C)=CC1O[C@@H]1C(O)[C@@H](O)[C@@]2(C)[C@@]12CO2` (stereo partly drawn), the pEC50 is less than 4.18 and the pIC50 is 7.55.

For the compound `CCCCOC(=O)NC(Nc1ccc(S(N)(=O)=O)cc1)(C(F)(F)F)C(F)(F)F`, the pEC50 was less than 3.70 and the negative logarithm of the IC50 (pIC50) was less than 3.70. On to `COc1cc(/C=C/C(=N\NC(N)=S)c2sc(NNC(C)=O)nc2C)ccc1O`, for which the pEC50 is less than 4.11 and the pIC50 was 4.16. As to `C=C(C)C(=O)O[C@H]1C[C@@]23O[C@@H]2CCC(=C[C@H]2OC(=O)C(=C)[C@H]12)COC3O` (stereo partly drawn), the pEC50 was less than 3.71 and the pIC50 is 4.42. `CON1C(=O)C2(CCCCC2)C(=O)C12C=CC(C)CC2` (stereo not drawn): the pEC50 is less than 3.79 and the pIC50 is less than 3.79.

For the compound `COC(=O)C1(NC(=O)C(CC(=O)OCc2ccccc2)NC(=O)OC(C)(C)C)CC1` (stereo not drawn) (Boc-[ξD](OBn)-[Ac3c]-OMe), the pEC50 is less than 3.70 and the pIC50 is less than 3.70. As to `CCCC1=NC(C(F)(F)F)(C(F)(F)F)N=C(N2CCOCC2)O1`, the pEC50 is less than 3.70 and the negative-log IC50 (pIC50) was less than 3.70. Regarding `CSc1ncnc2c1ncn2CCC(=O)O`, the pEC50 is less than 3.70 and the pIC50 is less than 3.70. `COc1cc2cc(C(=O)N3CC(CCl)c4ccc([N+](C)(C)Cc5ccc([N+](=O)[O-])cc5)cc43)[nH]c2c(OC)c1OC` (stereo not drawn): the pEC50 was less than 3.70 and the negative-log IC50 (pIC50) was 5.11. As for `COc1ccc(N2C(=O)C3c4[nH]c5ccc(OC)cc5c4C4CCC(C(C)(C)C)CC4C3C2=O)cc1` (stereo not drawn), the pEC50 is less than 4.83 and the negative logarithm of the IC50 (pIC50) is less than 4.83. Regarding `Brc1ccc(C2SCc3nc4ccccc4n32)cc1` (stereo not drawn), the outcome was inactive. In the case of `O=c1[nH]nc(Cc2ccccc2)n1/N=C/c1ccccc1Cl`, the pEC50 is less than 3.70 and the pIC50 is less than 3.70.

`COC(=O)CNC(=O)Nc1cc(N2C(=O)ON3C2C(C)(C)N(O)C3(C)C)ccc1C` (stereo not drawn): the pEC50 is less than 3.70 and the pIC50 was 3.77. For the compound `N/C(=C\c1ccc(OCc2ccccc2)c(OCc2ccccc2)c1[N+](=O)[O-])C(=O)O`, the outcome was inactive. For `CC(C)(C)OC(=O)CC(NC(=O)OC(C)(C)C)C(=O)N[C@@H]1CCCC[C@H]1C(=O)OCc1ccccc1` (stereo partly drawn), the pEC50 is less than 3.70 and the pIC50 is 4.98.

On to `CC(C)=C[C@@H]1C[C@H](n2cc(C)c(=O)[nH]c2=O)ON1CCOS(=O)(=O)c1ccc(C)cc1`, for which the pEC50 is less than 3.70 and the pIC50 was 4.09.

As for `O=C1NC(=O)C2C(=O)NC(=O)C1C2(c1ccccc1)c1cc[nH]c1` (stereo not drawn), the pEC50 was less than 4.65 and the pIC50 is 4.78. As for `CN(C1=NCCO1)c1cccc2ccccc12`, the pEC50 was less than 3.70 and the pIC50 is 3.89. On to `O=C(c1c(F)c(F)c(F)c(F)c1F)n1c(=S)n(C(=O)c2c(F)c(F)c(F)c(F)c2F)c2ccccc21`, for which the pEC50 is less than 4.00 and the pIC50 is 5.31. As for `CCCNC(=O)N1CC(CN2CCN(c3ccccc3)CC2)O/C1=N/C(=O)Nc1ccccc1` (stereo not drawn), the pEC50 was less than 3.70 and the negative logarithm of the IC50 (pIC50) is 4.11. In the same order, the values of `C#CCOC(=O)c1ccc(OC(C)=O)cc1` are less than 3.70 and 3.72. `C=C(C)[C@@H]1CC[C@]2(COC(=O)CC(C)(C)CC(=O)O)CC[C@]3(C)[C@H](CC[C@@H]4[C@@]5(C)CC[C@H](OC(=O)CC(C)(C)CC(=O)O)C(C)(C)[C@@H]5CC[C@]43C)[C@@H]12`: the pEC50 was less than 3.70 and the negative logarithm of the IC50 (pIC50) is 5.15.

Take `COC(=O)C(Cc1nc2ccccc2nc1C)/C(=N\NC(N)=O)C(=O)Nc1cccc([N+](=O)[O-])c1` (stereo not drawn): the pEC50 is less than 4.82 and the pIC50 was less than 4.82. Take `O=[N+]([O-])c1cccnc1S(=O)(=O)c1ccccc1`: the pEC50 was less than 3.31 and the negative logarithm of the IC50 (pIC50) is 5.96.

Take `CCSC(=O)NNc1nc2ccccc2s1`: the pEC50 is less than 3.70 and the negative logarithm of the IC50 (pIC50) is 4.20. Consider `O=c1c2nc3ccccc3c(=O)n2ncn1-c1ccccc1Cl`, for which the pEC50 was less than 3.70 and the pIC50 is less than 3.70. Take `CC(C)(C)OC(=O)[C@@H]1CCC(=S)N1Cc1ccccc1`: the pEC50 was less than 3.70 and the pIC50 is 3.87. Turning to `COC1=C(C)C2CC(=O)OC3CC4C(C)CC(O)C(=O)[C@]4(C)C(C1=O)[C@@]32C` (stereo partly drawn), the result was inactive.

On to `C=CCc1cc(/C(CC)=C(/CC)c2ccc(OCCN(CC)CC)c(CC=C)c2)ccc1OCCN(CC)CC`, for which the pEC50 was less than 3.70 and the pIC50 is 5.08. Regarding `COc1ccc(/C=C/C(=O)c2ccc3c(c2)OCO3)cc1OC`, the pEC50 was less than 4.36 and the negative logarithm of the IC50 (pIC50) was 4.68.

On to `Cn1c2c(c3ccccc31)CCN(CCN1CCN(c3ccccc3)CC1)C2=O`, for which the outcome was inactive. In the case of `Cc1cc(S(=O)(=O)Nc2nc3ccccc3n2-c2ccccc2)c(S)cc1Cl`, the pEC50 is less than 3.70 and the pIC50 was 3.79.
